Data reported in US8084621B2, “3-Pyrrolo[b]cyclohexylene-2-dihydroindolinone derivatives and uses thereof” (Jiangsu Simcere Pharmaceutical R&D Co. Ltd., priority 2006, dated 2011).

Assays:
Type in all cases: cell-based
[1] = test system: Human Hepatocellular Carcinoma Cell Line (HEPG2); assay: Tumor cell proliferation assay (MTT), HEPG2; conditions: for inhibition at 10 µM: concentration of 10^−5 mol/L, preliminary screening, 72 hours, read-out: Inhibition rate % HEPG2; for IC50: secondary screening, 48 hours
Description: (§1) The assay used generally is the blue tetrazolium bromide (MTT) method. […] The amount of formazan can be detected by the microplate reader through the absorption value at 570 nm. The amount of formazan product generated is proportional to the number of living cells in the sample, so the OD value may reflect the number of living cells and the ability of a test drug to inhibit or kill cells. The MTT assay may be used in determining the ability of different compounds of the present invention to inhibit one or more cancer cells proliferation. Similar assays can be designed along the same lines for any cancer cell using techniques well known in the art.
(§2) The assay used generally is the blue tetrazolium bromide (MTT) method. […] Intracellular purple formazan salt crystals can be solved in DMSO and the absorption value at 570 nm is detected by the microplate reader, then the number of living cells can be detected indirectly. So MTT assay may be used to determine the ability of a compound of the present invention to inhibit cell proliferation. Similar assays can be designed along the same lines for any cancer cell using techniques well known in the art.
2.2.8 Human Hepatocellular Carcinoma Cell Line (HEPG2);
The cells of 2.2.8, 2.2.9 cultured in DMEM/High glucose medium containing 12% calf serum in the condition of 37° C., 5% CO2.
(§3) 2.3.1 Cell seeding: Trypsinize the cell by 0.05% trypsin-EDTA and add RPMI 1640 medium (DMEM or 5A) containing 12% calf serum. Count the number, then dilute to 1.67×10^4/ml. Add 180 ul/well to the 96 well plate (3000 cells/well).
(§4) 2.3.2 Culture: cells are incubated for 24 hours at 37° C. under 5% CO2.
(§5) 2.3.3 Preliminary screening: The compounds are firstly diluted to 0.1 mol/L with DMSO, and then diluted to three concentrations of 10^−5 mol/L, 10^−6 mol/L and 10^−7 mol/L. Add 20 ul test compounds to the 96 well plate and incubate for 72 hours. Each group has three parallel wells and all experiments repeat three times. Each inhibition ratio is calculated, then an average value of three times is taken as the measured value. 2.3.4 Staining 2.3.4.1 Attached cell: add 20 ul/well MTT to the 96-well plates; incubate for 4 hours in the incubator. Pour out the culture medium in the well and add 100 ul/well DMSO. Shake the plate for 5 min. 2.3.4.2 Suspension cell: add 20 ul/well MTT to the 96-well plates; incubate for 4 hours in the incubator. Add 50 ul/well 20% SDS and incubate for overnight in the incubator. 2.3.5 Reading the plates: read the absorbance A570-A630 with the Infinite M200 microtiter plate reader. Calculate the inhibition ratio of the test compounds. 2.3.6 Secondary screening: the compounds whose inhibition ratio is greater than 50% at the concentrations of 10^−5 mol/L in the preliminary screening will be picked out for Secondary screening. Dilute these compounds to ten concentrations: 10^−5 mol/L, 0.5×10^−5 mol/L, 10^−6 mol/L, 0.8×10^−6 mol/L, 0.6×10^−6 mol/L, 0.4×10^−6 mol/L, 0.2×10^−6 mol/L, 10^−7 mol/L, 0.8×10^−7 mol/L and 0.4×10^−7 mol/L. Add 20 ul test compound solution to the 96 well plate and incubate for 48 hours. Each group has three parallel wells and all experiments repeat for three times. Read the plates and calculate the inhibition ratio according to the preliminary screening method. 2.3.7 Calculate the Inhibition Ratio of Cell Proliferation and the IC50
(§6) According to the inhibition ratio of cell proliferation at the different concentrations of the compound, inhibition ratio of 50% of the test compound is calculated through the logarithm of the concentration of the compound with the Logit [I] linear regression, and an average value of three times is taken as the measured value of a sample.

[2] = test system: Human Gastric Cancer Cell Line (BGC); assay: Tumor cell proliferation assay (MTT), BGC; conditions: for inhibition at 10 µM: concentration of 10^−5 mol/L, preliminary screening, 72 hours, read-out: Inhibition rate % BGC; for IC50: secondary screening, 48 hours
[3] = test system: Human Bladder Cancer Cell Line (T24); assay: Tumor cell proliferation assay (MTT), T24; conditions: for inhibition at 10 µM: concentration of 10^−5 mol/L, preliminary screening, 72 hours, read-out: Inhibition rate % T24; for IC50: secondary screening, 48 hours
Description: as §1, §2
2.2.7 Human Bladder Cancer Cell Line (T24);
The cells of 2.2.6, 2.2.7 cultured in RPMI 1640 medium containing 12% fetal bovine serum in the condition of 37° C., 5% CO2.
as §3, §4, §5, §6

[4] = test system: Human Non-Small Cell Lung Cancer Cell Line (A549); assay: Tumor cell proliferation assay (MTT), A549; conditions: concentration of 10^−5 mol/L, preliminary screening, 72 hours, read-out: Inhibition rate % A549
Outline: A

[5] = test system: Human Ovarian Cancer Cell Line (SK-OV-3); assay: Tumor cell proliferation assay (MTT), SK-OV-3; conditions: concentration of 10^−5 mol/L, preliminary screening, 72 hours, read-out: Inhibition rate % SK-OV-3
[6] = test system: Human Colon Cancer Cell Line (HCT 116); assay: Tumor cell proliferation assay (MTT), HCT116; conditions: concentration of 10^−5 mol/L, preliminary screening, 72 hours, read-out: Inhibition rate % HCT116
Description: as §1, §2
2.2.12 Human Colon Cancer Cell Line (HCT 116);
The cells of 2.2.11, 2.2.12, 2.2.13 were cultured in MC COYS 5-A medium containing 12% fetal bovine serum in the condition of 37° C., 5% CO2.
as §3, §4, §5, §6

IC50 [1] [µM]	IC50 [2] [µM]	IC50 [3] [µM]	SMILES	inhibition at 10 µM [1] [%]	inhibition at 10 µM [2] [%]	inhibition at 10 µM [3] [%]	inhibition at 10 µM [4] [%]	inhibition at 10 µM [5] [%]	inhibition at 10 µM [6] [%]
–	–	–	Cc1[nH]c2c(c1C(=O)NCCO)CCC/C2=C1/C(=O)Nc2ccccc21 [I-8, N-(2-hydroxyethyl)-2-methyl-7-[1,2-dihydro-2-oxo-3H-indol-(Z)-3-ylidene]-4,5,6,7-tetrahydro-1H-indole-3-carboxamide]	53.8	47	64.6	0.24	38.1	79.1
7.73	6.73	3.56	CCN(CC)CCNC(=O)c1c(C)[nH]c2c1CCC/C2=C1/C(=O)Nc2ccccc21 [I-5, N-(2-(diethylamino)ethyl)-2-methyl-7-[1,2-dihydro-2-oxo-3H-indol-(Z)-3-ylidene]-4,5,6,7-tetrahydro-1H-indole-3-carboxamide]	64.6	64	74.5	6.71	77.5	99.9
7.27	6.11	3.31	CCN(CC)CCNC(=O)c1c(C)[nH]c2c1CCC/C2=C1/C(=O)Nc2ccc(F)cc21 [I-2, N-(2-(diethylamino)ethyl)-2-methyl-7-[1,2-dihydro-5-fluoro-2-oxo-3H-indol-(Z)-3-ylidene]-4,5,6,7-tetrahydro-1H-indole-3-carboxamide]	64	71	81.4	10.2	92.2	99.4
